US10022449B2, “Synergistic antiviral composition and use thereof” (priority 2009, dated 2018)

Tests used:
[1] = system: influenza A/PR/8/34 virus; assay: Mean weight of mice infected with lethal influenza virus, treatment starting 24 hours post infection (Example 2); assay type: in vivo, C57B16 mice; conditions: treatment from 24 hours post infection; single actives: first seven days; combination: from day 3 onwards (pmax<0,004), t-test
[2] = system: influenza A/PR/8/34 virus; assay: Survival of mice infected with lethal influenza virus, treatment starting 48 hours post infection (Example 1); assay type: in vivo, C57B16 mice; conditions: lethal dose (10x LD50) i.n.; treatment from 48 hours post infection, twice daily; iota-carrageenan 1200 μg/ml 25 μl per nostril i.n.; TAMIFLU 10 mg/kg/d per os; 10 mice per group
Description: (§1) 40 C57B16 mice were infected with a lethal dose (10× LD50) of influenza A/PR/8/34 virus by intranasal instillation (i.n.) without anaesthesia. After infection of the nasal cavity the virus spreads in the respiratory tract and finally causes a lethal pneumonia in mice. This model mimics the natural influenza infection in humans via the respiratory tract that sometimes causes severe conditions.
The mice were divided into four groups of 10 mice each. 48 hours post infection the mice were treated twice daily i.n. without anaesthesia, wherein the first group was treated with a placebo (25 μl 0.5% aqueous NaCl-solution per nostril) as a negative control and the second group was treated solely with 25 μl per nostril of a aqueous iota-carrageenan polymer solution at a concentration of 1200 μg/ml. Group three and four were fed with 10 mg/kg/d of TAMIFLU® per os, wherein the third group additionally received the iota-carrageenan polymer intranasally at the above concentration whereas the fourth group received the intranasal placebo treatment in addition to the oral Tamiflu® administration. […] The survival of the animals was determined daily as a surrogate parameter for health. The difference in the number of surviving animals was evaluated using a log-rank test.

[3] = system: influenza A/PR/8/34 virus; assay: Survival of influenza-infected mice, iota-carrageenan and oseltamivir, treatment starting 48 hours post infection (Example 3); assay type: in vivo; conditions: treatment from 48 hours post infection, twice daily; oseltamivir 5 mg/kg/d orally; iota-carrageenan 1200 μg/ml i.n. (120 μg per day); 10 mice per group
Text: as §1
The infection of the mice was done as described in Example 1. The mice were divided into four groups of 10 mice each. 48 hours post infection the mice were treated twice daily i.n. without anaesthesia, wherein the first group was treated with a placebo (25 μl 0.5% aqueous NaCl-solution per nostril) as a negative control, the second group was treated orally with oseltamivir at a dosage of 5 mg/kg/d, the third group was treated with 25 μl per nostril of an aqueous iota-carrageenan polymer solution at a concentration of 1200 μg/ml, and the fourth group was treated with a combination of iota-carrageenan and oseltamivir twice daily, wherein oseltamivir was administered orally at a dosage of 5 mg/kg/d and the total amount of iota-carrageenan administered intranasally was 100 μl corresponding to an amount of 120 μg per day. The survival of the animals was determined daily as a surrogate parameter for health. The difference in the number of surviving animals was evaluated using a log-rank test.

influenza virus = conditions: cited from earlier work; for reduction of median time until detection of symptom alleviation: individuals of the YOPI group (young, old, pregnant, immunocompromised); for reduction of median time until detectable symptom alleviation: non-risk adults group (not YOPI)
[4] = system: influenza A/PR/8/34 virus; assay: Survival of influenza-infected mice, iota-/kappa-carrageenan and zanamivir, treatment starting 48 hours post infection (Example 4); assay type: in vivo; conditions: treatment from 48 hours post infection; zanamivir 0.5 mg/kg/d intranasally; carrageenan polymer 120 μg per day intranasally; 20 mice per group
[5] = cited from earlier work

Structure (SMILES)	weight loss compared to placebo treatment [1]	survival of mice (survivors out of 10) [2]	survival of mice (survivors out of 10) [3]	reduction of median time until detection of symptom alleviation (influenza virus)	reduction of median time until detectable symptom alleviation (influenza virus)	survival of mice (survivors out of 20) [4]	Tmax ([5]; in vivo)	absolute bioavailability ([5]; orally administered, on average)
CCOC(=O)C1=C[C@@H](OC(CC)CC)[C@H](NC(C)=O)[C@@H](N)C1 [TAMIFLU®, oseltamivir phosphate]	failed to provide a significant benefit with regard to weight loss	3/10						
CCOC(=O)C1=C[C@@H](OC(CC)CC)[C@H](NC(C)=O)[C@@H](N)C1 [oseltamivir]			3/10	0.74 days	0.55 days			
CC(=O)N[C@H]1[C@H]([C@H](O)[C@H](O)CO)OC(C(=O)O)=C[C@@H]1N=C(N)N [zanamivir]				0.98 days	0.57 days	7/20	1 to 2 h	about 2%
